Test results taken from PMC8402547, “In Vitro and In Vivo Analysis of Ochratoxin A-Derived Glucuronides and Mercapturic Acids as Biomarkers of Exposure” (Toxins, 2021).

Columns and labels:
Format in all cases: in vivo, male F344/N rats
[1] = 14-day rat study: 24 h urinary excretion of OTA and OTA-glucuronides, LC–MS/MS with and without β-glucuronidase hydrolysis; details: for Urinary excretion / Urinary excretion, fraction of the administered dose: 2 mg OTA/kg bw oral, 5 d/week; for Urinary excretion, fraction of the administered dose: 24 h urine
Description: (§1) 14-day study: Male F344 rats (170–190 g) were purchased from Charles-River Laboratories, Sulzfeld, Germany. Animals had free access to water and standard diet (Altromin) and were kept under standard conditions (12 h day/night cycle, temperature 21–23 °C, humidity 45–55%). Rats were transferred to metabolic cages (Tecniplast Metabolic Cage—Rats Over 300 g; Tecniplast, Italy) for collection of urine 3 days prior to dosing. Animals were administered OTA dissolved in corn oil by oral gavage at 0, 0.25, 0.5, 1.0 and 2.0 mg/kg bw for 2 weeks (5 days per week). Urine was collected every 12 h on day 1 of treatment and every 24 h thereafter on ice, aliquoted and stored at −20 °C until further analysis.
(§2) Duplicate analysis of OTA in urine samples with and without enzymatic hydrolysis allowed for indirect measurement of glucuronides, whereby an increase in the concentration of OTA in the samples incubated with enzyme compared to those without enzymatic treatment reflected the hydrolyzed glucuronides. Aliquots of rat urine (125 µL) were mixed with 0.1 M sodium acetate (104 µL; pH = 5). For analysis of the concentration of OTA without enzymatic hydrolysis, an aliquot (30 µL) of this solution was removed and mixed with 7 µL acetonitrile. The remaining solution (199 µL) was incubated with β-glucuronidase (1.65 µL; <100,000 units/mL) at 37 °C for 1 h. Hydrolysis was terminated by addition of ice-cold acetonitrile (50 µL) and centrifugation (15 min., 4 °C, 20,000× g). To 98 µL supernatant, 2 µL isotopically labeled ^13C20-OTA in acetonitrile (14-day study: 5 µg/mL; 90-day study: 1 µg/mL) was added as an internal standard. For analysis, 10 µL of each sample were injected into the LC–MS system and analyzed using the method described below. A calibration curve was prepared from solutions of OTA and the isotopically labeled ^13C20-OTA internal standard in acetonitrile and subsequent dilution with urine of a control animal.
(§3) LC–MS/MS analyses were performed on an Agilent 1100 series LC coupled to an API 2000/Q-Trap mass spectrometer (Applied Biosystems/MDS Sciex, Concord, Canada). Samples were injected into the LC–MS/MS system through an Agilent 1100 series autosampler. Separations were carried out on a ReproSil-Pur C18 AQ column (2 mm × 150 mm, 5 µm; Dr. Maisch; Ammerbuch, Germany). Gradient elution of OTA-derived metabolites was carried out with water + 0.1% formic acid (solvent A) and acetonitrile (solvent B). Initially, solvent A was held isocratic for 5 min at 100%, followed by a linear gradient to 95% B in 5 min. These conditions were held for further 5 min. Within 1 min, the gradient decreased linearly to 0% B and remained at initial conditions until the end of analysis (30 min). A flow rate of 0.2 mL/min was used. For each run, 10 µL of the respective sample were injected by the autosampler.
(§4) The API 2000/Q-Trap mass spectrometer was operated with a Turbo Ion Spray source in negative ion mode with a voltage of −4000 V. Spectral data were recorded with N2 as the heater gas at 450 °C and as the collision gas (CAD = −2) in multiple reaction monitoring mode (MRM).

[2] = Direct LC–MS/MS analysis of OTA metabolites in urine of OTA-treated rats; details: OTA up to 2 mg/kg bw, negative ionization mode
Description: Archived urine samples from previous repeated dose oral toxicity studies on OTA in male F344/N rats were used. The studies were performed according to national animal welfare regulations after authorization by the local authorities (Regierung von Unterfranken, AZ 621-2531.01-9/98 and AZ 54-2531.01-59/05).
as §1
(§5) 90-day study: Male F344/N rats (6–7 weeks old) were purchased from Harlan-Winkelmann, Borchen, Germany. Animals were housed in groups of 5 in Macrolon type-4 cages and allowed free access to pelleted standard rat maintenance diet (SSNIFF, Soest, Germany) and tap water. After a week of acclimatization, rats (n = 5/dose) were exposed to OTA dissolved in corn oil by oral gavage at doses of 0, 21, 70 or 210 µg/kg bw for 2, 4 or 13 weeks (5 days per week). For urine collection, animals were transferred into metabolic cages (Tecniplast Metabolic Cage—Rats Over 300 g; Tecniplast, Italy) 48 h prior to necropsy and fasted for 20 h but allowed free access to tap water. Urine was collected for 24 h on ice, aliquoted and stored at −20 °C until further analysis.
Urine samples were diluted with acetonitrile (2:1), vortexed and cleared via centrifugation (4 °C, 15 min., 2000× g) to precipitate proteins. Of the resulting supernatant, 10 µL were injected into the LC–MS system and analyzed using the method described below.
as §3, §4
In addition to MRM, constant neutral loss of 129 amu in the negative ion mode based on the characteristic fragmentation pattern of mercapturic acids was used to screen for N-acetyl-cysteine conjugates of OTA. Furthermore, constant neutral loss of 176 amu in positive ion mode based on the fragmentation pattern of glucuronic acid conjugates was used to screen for OTA glucuronides.

[3] = 90-day rat study: 24 h urinary excretion of OTA and OTA-glucuronides, LC–MS/MS with and without β-glucuronidase hydrolysis; details: for Urinary excretion, fraction of the administered dose / Urinary excretion: 5 days/week; for Urinary excretion, fraction of the administered dose: 24 h urine
Description: as §5, §2, §3, §4

[4] = 4 weeks treatment, OTA 210 μg/kg bw per day oral, n = 1

CC1Cc2c(Cl)cc(C(=O)NC(Cc3ccccc3)C(=O)OC3OC(C(=O)O)C(O)C(O)C3O)c(O)c2C(=O)O1 (centres unmarked) [OTA-Glucuronide]
Urinary excretion ([1]; animal 2, day 3 of treatment): 0.6 nmol/24 h
Urinary excretion, fraction of the administered dose ([1]; animal 2, day 3 of treatment): 0.1%
Urinary excretion ([1]; animal 2, day 5 of treatment): 7.0 nmol/24 h
Urinary excretion, fraction of the administered dose ([1]; animal 2, day 5 of treatment): 0.8%
Urinary excretion ([1]; animal 2, day 7 of treatment): 0.7 nmol/24 h
Urinary excretion, fraction of the administered dose ([1]; animal 2, day 7 of treatment): 0.1%
Urinary excretion ([1]; animal 2, day 9 of treatment): 12.2 nmol/24 h
Urinary excretion, fraction of the administered dose ([1]; animal 2, day 9 of treatment): 1.4%
Urinary excretion ([1]; animal 2, day 11 of treatment): 3.1 nmol/24 h
Urinary excretion, fraction of the administered dose ([1]; animal 2, day 11 of treatment): 0.4%
Urinary excretion ([1]; animal 2, day 13 of treatment): 3.4 nmol/24 h
Urinary excretion, fraction of the administered dose ([1]; animal 2, day 13 of treatment): 0.4%
Urinary excretion ([1]; animal 3, day 3 of treatment): 1.5 nmol/24 h
Urinary excretion, fraction of the administered dose ([1]; animal 3, day 3 of treatment): 0.2%
Urinary excretion ([1]; animal 3, day 5 of treatment): 1.6 nmol/24 h
Urinary excretion, fraction of the administered dose ([1]; animal 3, day 5 of treatment): 0.3%
Urinary excretion ([1]; animal 3, day 7 of treatment): 22.0 nmol/24 h
Urinary excretion, fraction of the administered dose ([1]; animal 3, day 7 of treatment): 2.4%
Urinary excretion ([1]; animal 3, day 9 of treatment): 16.9 nmol/24 h
Urinary excretion, fraction of the administered dose ([1]; animal 3, day 9 of treatment): 1.9%
Urinary excretion ([1]; animal 3, day 11 of treatment): 22.5 nmol/24 h
Urinary excretion, fraction of the administered dose ([1]; animal 3, day 11 of treatment): 2.5%
Urinary excretion ([1]; animal 3, day 13 of treatment): 6.384 nmol/24 h
Urinary excretion, fraction of the administered dose ([1]; animal 3, day 13 of treatment): 0.7%
24 h urinary excretion, % of the daily administered dose ([1]; range over the course of the study, OTA 2 mg/kg bw for 2 weeks (5 days/week)): 0.1–2.5%
Detection in urine of OTA-treated rats by direct LC–MS/MS (MRM) [2]: failed
Urinary excretion, fraction of the administered dose ([3]; 2 weeks treatment, OTA 21 μg/kg bw per day oral): 0.8%
Urinary excretion ([3]; 2 weeks treatment, OTA 21 μg/kg bw per day oral, mean ± SD): 0.10 ± 0.02 nmol/24 h
Urinary excretion, fraction of the administered dose ([3]; 2 weeks treatment, OTA 70 μg/kg bw per day oral): 0.6%
Urinary excretion ([3]; 2 weeks treatment, OTA 70 μg/kg bw per day oral, mean ± SD): 0.23 ± 0.08 nmol/24 h
Urinary excretion, fraction of the administered dose ([3]; 2 weeks treatment, OTA 210 μg/kg bw per day oral): 0.4%
Urinary excretion ([3]; 2 weeks treatment, OTA 210 μg/kg bw per day oral, mean ± SD): 0.48 ± 0.36 nmol/24 h
Urinary excretion, fraction of the administered dose ([3]; 4 weeks treatment, OTA 21 μg/kg bw per day oral): 0.7%
Urinary excretion ([3]; 4 weeks treatment, OTA 21 μg/kg bw per day oral, mean ± SD): 0.08 ± 0.09 nmol/24 h
Urinary excretion, fraction of the administered dose ([3]; 4 weeks treatment, OTA 70 μg/kg bw per day oral): 1.5%
Urinary excretion ([3]; 4 weeks treatment, OTA 70 μg/kg bw per day oral, mean ± SD): 0.61 ± 0.67 nmol/24 h
Urinary excretion, fraction of the administered dose [3, 4]: 0.2%
Urinary excretion [3, 4]: 0.21 nmol/24 h
Urinary excretion, fraction of the administered dose ([3]; 13 weeks treatment, OTA 21 μg/kg bw per day oral): 0.2%
Urinary excretion ([3]; 13 weeks treatment, OTA 21 μg/kg bw per day oral, mean ± SD): 0.03 ± 0.00 nmol/24 h
Urinary excretion, fraction of the administered dose ([3]; 13 weeks treatment, OTA 70 μg/kg bw per day oral): 1.7%
Urinary excretion ([3]; 13 weeks treatment, OTA 70 μg/kg bw per day oral, mean ± SD): 0.85 ± 0.74 nmol/24 h
Urinary excretion, fraction of the administered dose ([3]; 13 weeks treatment, OTA 210 μg/kg bw per day oral): 1.1%
Urinary excretion ([3]; 13 weeks treatment, OTA 210 μg/kg bw per day oral, mean ± SD): 1.72 ± 1.53 nmol/24 h
Relationship between OTA dose and urinary excretion (Pearson correlation) ([3]; OTA 0, 21, 70, 210 μg/kg bw, 2, 4 and 13 weeks): linear relationship
Excretion in male rat urine, % of the orally administered dose ([3]; male rats, indirect analysis, summary statement in discussion): less than 2%
Fraction of the administered dose excreted in urine ([3]; range over 90-day study, OTA 21, 70 and 210 µg/kg (5 days/week)): 0.2 to 1.7%
